Values quoted from earlier work as cited in patent US6623775B2, “Treating or preventing illness growth of Clostridium difficile” (S.S. Steiner, Inc., priority 1997, dated 2003).

Conditions: degree of ionization taken into account

CC(C)=CCC(=O)[C@@]1(O)C(O)=C(C(=O)CC(C)C)C(=O)[C@H]1CC=C(C)C (relative stereo) [trans-isohumulone]
Antibacterial activity relative to colupulone: 11 times | Antibacterial activity relative to humulone: about 20 times | Antibacterial activity relative to trans-humulinic acid: nine
